Test results as given in ChEMBL document CHEMBL2440076, “New triarylpyrazoles as broad-spectrum anticancer agents: design, synthesis, and biological evaluation” (Eur J Med Chem, 2013).

What was measured:
Assay type in all cases: functional
NCI-H322M [1] = assay: Growth inhibition of human NCI-H322M cells assessed as cell growth at 5X10'-6 M after 48 hrs by sulforhodamine B assay; conditions: read-out: Activity
SN12C [2] = assay: Growth inhibition of human SN12C cells assessed as cell growth at 5X10'-6 M after 48 hrs by sulforhodamine B assay; conditions: read-out: Activity
PC-3 = assay: Growth inhibition of human PC3 cells assessed as cell growth at 5X10'-7 M after 48 hrs by sulforhodamine B assay; conditions: PC-3, 48 h, read-out: Activity
SN12C [3] = assay: Growth inhibition of human SN12C cells assessed as cell growth at 5X10'-7 M after 48 hrs by sulforhodamine B assay; conditions: read-out: Activity
Malme-3M = assay: Growth inhibition of human MALME-3M cells assessed as cell growth at 5X10'-7 M after 48 hrs by sulforhodamine B assay; conditions: read-out: Activity
SN12C [4] = assay: Growth inhibition of human SN12C cells assessed as cell growth at 5X10'-9 M after 48 hrs by sulforhodamine B assay; conditions: read-out: Activity
UACC-257 [5] = assay: Growth inhibition of human UACC257 cells assessed as cell growth at 5X10'-7 M after 48 hrs by sulforhodamine B assay; conditions: UACC-257, 48 h, read-out: Activity
[6] = Growth inhibition of human HCC2998 cells assessed as cell growth at 5X10'-7 M after 48 hrs by sulforhodamine B assay; conditions: HCC 2998, 48 h, read-out: Activity
MOLT-4 = assay: Growth inhibition of human MOLT4 cells assessed as cell growth at 5X10'-9 M after 48 hrs by sulforhodamine B assay; conditions: MOLT-4, 48 h, read-out: Activity
NCI-H460 = assay: Growth inhibition of human NCI-H460 cells assessed as cell growth at 5X10'-5 M after 48 hrs by sulforhodamine B assay; conditions: NCI-H460, 48 h, read-out: Activity
M14 = assay: Growth inhibition of human M14 cells assessed as cell growth at 5X10'-5 M after 48 hrs by sulforhodamine B assay; conditions: M14, 48 h, read-out: Activity
OVCAR-3 [7] = assay: Growth inhibition of human OVCAR3 cells assessed as cell growth at 5X10'-7 M after 48 hrs by sulforhodamine B assay; conditions: OVCAR-3, 48 h, read-out: Activity
MDA-MB-231 = assay: Growth inhibition of human MDA-MB-231 cells assessed as cell growth at 5X10'-8 M after 48 hrs by sulforhodamine B assay; conditions: MDA-MB-231, 48 h, read-out: Activity
BT-549 [8] = assay: Growth inhibition of human BT549 cells assessed as cell growth at 5X10'-9 M after 48 hrs by sulforhodamine B assay; conditions: BT-549, 48 h, read-out: Activity
SK-MEL-5 = assay: Growth inhibition of human SK-MEL-5 cells assessed as cell growth at 5X10'-6 M after 48 hrs by sulforhodamine B assay; conditions: SK-MEL-5, 48 h, read-out: Activity
SK-MEL-28 = assay: Growth inhibition of human SK-MEL-28 cells assessed as cell growth at 5X10'-9 M after 48 hrs by sulforhodamine B assay; conditions: SK-MEL-28, 48 h, read-out: Activity
NCI-H522 = assay: Growth inhibition of human NCI-H522 cells assessed as cell growth at 5X10'-6 M after 48 hrs by sulforhodamine B assay; conditions: NCI-H522, 48 h, read-out: Activity
NCI-H322M [9] = assay: Growth inhibition of human NCI-H322M cells assessed as cell growth at 5X10'-7 M after 48 hrs by sulforhodamine B assay; conditions: read-out: Activity
MCF7 = assay: Growth inhibition of human MCF7 cells assessed as cell growth at 5X10'-7 M after 48 hrs by sulforhodamine B assay; conditions: MCF7, 48 h, read-out: Activity
[10] = Growth inhibition of human HCC2998 cells assessed as cell growth at 5X10'-5 M after 48 hrs by sulforhodamine B assay; conditions: HCC 2998, 48 h, read-out: Activity
HT-29 [11] = assay: Growth inhibition of human HT-29 cells assessed as cell growth at 5X10'-6 M after 48 hrs by sulforhodamine B assay; conditions: HT-29, 48 h, read-out: Activity
A498 [12] = assay: Growth inhibition of human A498 cells assessed as cell growth at 5X10'-8 M after 48 hrs by sulforhodamine B assay; conditions: A498, 48 h, read-out: Activity
OVCAR-3 [13] = assay: Growth inhibition of human OVCAR3 cells assessed as cell growth at 5X10'-6 M after 48 hrs by sulforhodamine B assay; conditions: OVCAR-3, 48 h, read-out: Activity
NCI-H226 = assay: Growth inhibition of human NCI-H226 cells assessed as cell growth at 5X10'-5 M after 48 hrs by sulforhodamine B assay; conditions: NCI-H226, 48 h, read-out: Activity
SN12C [14] = assay: Growth inhibition of human SN12C cells assessed as cell growth at 5X10'-5 M after 48 hrs by sulforhodamine B assay; conditions: read-out: Activity
HT-29 [15] = assay: Growth inhibition of human HT-29 cells assessed as cell growth at 5X10'-7 M after 48 hrs by sulforhodamine B assay; conditions: HT-29, 48 h, read-out: Activity
UACC-62 [16] = assay: Growth inhibition of human UACC62 cells assessed as cell growth at 5X10'-8 M after 48 hrs by sulforhodamine B assay; conditions: UACC-62, 48 h, read-out: Activity
UACC-62 [17] = assay: Growth inhibition of human UACC62 cells assessed as cell growth at 5X10'-6 M after 48 hrs by sulforhodamine B assay; conditions: UACC-62, 48 h, read-out: Activity
UACC-62 [18] = assay: Growth inhibition of human UACC62 cells assessed as cell growth at 5X10'-7 M after 48 hrs by sulforhodamine B assay; conditions: UACC-62, 48 h, read-out: Activity
UACC-257 [19] = assay: Growth inhibition of human UACC257 cells assessed as cell growth at 5X10'-5 M after 48 hrs by sulforhodamine B assay; conditions: UACC-257, 48 h, read-out: Activity
A498 [20] = assay: Growth inhibition of human A498 cells assessed as cell growth at 5X10'-7 M after 48 hrs by sulforhodamine B assay; conditions: A498, 48 h, read-out: Activity
SR = assay: Growth inhibition of human SR cells assessed as cell growth at 5X10'-6 M after 48 hrs by sulforhodamine B assay; conditions: read-out: Activity
SF-268 = assay: Growth inhibition of human SF268 cells assessed as cell growth at 5X10'-8 M after 48 hrs by sulforhodamine B assay; conditions: SF-268, 48 h, read-out: Activity
NCI-H322M [21] = assay: Growth inhibition of human NCI-H322M cells assessed as cell growth at 5X10'-8 M after 48 hrs by sulforhodamine B assay; conditions: read-out: Activity
SF-539 = assay: Growth inhibition of human SF539 cells assessed as cell growth at 5X10'-8 M after 48 hrs by sulforhodamine B assay; conditions: SF-539, 48 h, read-out: Activity
ACHN = assay: Growth inhibition of human ACHN cells assessed as cell growth at 5X10'-5 M after 48 hrs by sulforhodamine B assay; conditions: read-out: Activity
SNB-19 = assay: Growth inhibition of human SNB19 cells assessed as cell growth at 5X10'-8 M after 48 hrs by sulforhodamine B assay; conditions: SNB-19, 48 h, read-out: Activity
BT-549 [22] = assay: Growth inhibition of human BT549 cells assessed as cell growth at 5X10'-7 M after 48 hrs by sulforhodamine B assay; conditions: BT-549, 48 h, read-out: Activity

Question: Which growth at 5 µM (NCI-H322M [1]) does the source give for COc1cc(-c2nn(-c3cccc(NC(=O)Nc4cccc(C(F)(F)F)c4)c3)cc2-c2ccncc2)ccc1Cl here?
Answer: -2%

Question: What about the growth at 5 µM (SN12C [2]) of the same compound?
Answer: 12%

Question: What about the growth at 0.5 µM (PC-3) of the same compound?
Answer: 44%

Question: What about the growth at 0.5 µM (SN12C [3]) of the same compound?
Answer: 80%

Question: And the growth at 0.5 µM (Malme-3M)?
Answer: 94%

Question: And the growth at 0.005 µM (SN12C [4])?
Answer: 97%

Question: And the growth at 0.5 µM (UACC-257 [5])?
Answer: 83%

Question: What about the growth at 0.5 µM [6] of the same compound?
Answer: 94%

Question: What about the growth at 0.005 µM (MOLT-4) of the same compound?
Answer: 94%

Question: What about the growth at 50 µM (NCI-H460) of the same compound?
Answer: -35%

Question: What about the growth at 50 µM (M14) of the same compound?
Answer: -64%

Question: And the growth at 0.5 µM (OVCAR-3 [7])?
Answer: 56%

Question: And the growth at 0.05 µM (MDA-MB-231)?
Answer: 99%

Question: And the growth at 0.005 µM (BT-549 [8])?
Answer: 98%

Question: And the growth at 5 µM (SK-MEL-5)?
Answer: -97%

Question: What about the growth at 0.005 µM (SK-MEL-28) of the same compound?
Answer: 100%

Question: And the growth at 5 µM (NCI-H522)?
Answer: -30%

Question: What about the growth at 0.5 µM (NCI-H322M [9]) of the same compound?
Answer: 82%

Question: And the growth at 0.5 µM (MCF7)?
Answer: 60%

Question: What about the growth at 50 µM [10] of the same compound?
Answer: -79%

Question: And the growth at 5 µM (HT-29 [11])?
Answer: -54%

Question: What about the growth at 0.05 µM (A498 [12]) of the same compound?
Answer: 87%

Question: What about the growth at 5 µM (OVCAR-3 [13]) of the same compound?
Answer: -42%

Question: What about the growth at 50 µM (NCI-H226) of the same compound?
Answer: 7%

Question: What about the growth at 50 µM (SN12C [14]) of the same compound?
Answer: -7%

Question: What about the growth at 0.5 µM (HT-29 [15]) of the same compound?
Answer: 72%

Question: What about the growth at 0.05 µM (UACC-62 [16]) of the same compound?
Answer: 94%

Question: What about the growth at 5 µM (UACC-62 [17]) of the same compound?
Answer: -73%

Question: And the growth at 0.5 µM (UACC-62 [18])?
Answer: 74%

Question: What about the growth at 50 µM (UACC-257 [19]) of the same compound?
Answer: -87%

Question: And the growth at 0.5 µM (A498 [20])?
Answer: 73%

Question: What about the growth at 5 µM (SR) of the same compound?
Answer: -24%

Question: And the growth at 0.05 µM (SF-268)?
Answer: 93%

Question: And the growth at 0.05 µM (NCI-H322M [21])?
Answer: 92%

Question: What about the growth at 0.05 µM (SF-539) of the same compound?
Answer: 94%

Question: And the growth at 50 µM (ACHN)?
Answer: -7%

Question: What about the growth at 0.05 µM (SNB-19) of the same compound?
Answer: 97%

Question: And the growth at 0.5 µM (BT-549 [22])?
Answer: 91%
